“Also recorded” adds a separate entry of the source. Values belong to the compound of their own block, whether it stands above or below them.
Tests used:
human UGT1A1 = target: T1, human UGT1A1 (Homo sapiens, UniProt P22309); assay: SN-38 glucuronidation by cDNA-expressed UGT1A1 in HK293 cells; conditions: HK293 cells expressing UGT1A1; increased with increasing protein concentrations
T1 sequence (P22309 26-533): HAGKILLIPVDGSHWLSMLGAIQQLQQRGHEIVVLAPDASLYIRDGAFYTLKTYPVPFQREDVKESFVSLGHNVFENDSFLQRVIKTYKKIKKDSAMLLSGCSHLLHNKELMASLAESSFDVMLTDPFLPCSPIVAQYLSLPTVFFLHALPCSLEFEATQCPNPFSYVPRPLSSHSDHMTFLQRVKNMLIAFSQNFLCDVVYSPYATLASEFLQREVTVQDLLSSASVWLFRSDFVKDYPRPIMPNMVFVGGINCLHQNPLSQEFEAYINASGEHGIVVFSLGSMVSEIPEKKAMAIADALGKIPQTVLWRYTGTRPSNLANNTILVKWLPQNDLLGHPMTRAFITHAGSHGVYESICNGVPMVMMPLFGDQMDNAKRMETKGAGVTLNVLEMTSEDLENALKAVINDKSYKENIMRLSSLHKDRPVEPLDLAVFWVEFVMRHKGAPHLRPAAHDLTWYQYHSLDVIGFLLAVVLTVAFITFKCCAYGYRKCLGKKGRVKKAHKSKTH
Description: (§1) Cell lysates from HK293 cells expressing UGT1A1 (♦), UGT1A4 (□) and UGT2B7 enzymes (Δ), and membrane preparations of HK293 cells expressing UGT1A1 enzyme (●), were screened for SN-38 glucuronidating activity. HK293 cells (⋄) were used as a control. Each data point represents the mean of three separate determinations.
(§2) To determine which particular isozyme of UGT1 glucuronidates SN-38, HK293 cells transfected with and expressing cDNA encoding selected UGT1 isozymes and a member of the UGT2 family (UGT2B7) were screened for SN-38 glucuronidating activity. Culture media and conditions for stable expression of human UGT1A1, UGT1A4, and UGT2B7 have been described previously. Coffman, et al., Mol. Pharmacol., 47:1101-1105 (1995), Green, et al., Drug Metab. Dispos., 23:299-302 (1995); Coffman, et al., Drug Metab. Dispos., 25:1-4 (1997) all are incorporated herein by reference. Briefly, the XbaI/XhoI and BamHI-XhoI fragments of human UGT1A1, UGT1A4, and UGT2B7 were subcloned into the respective corresponding sites of the mammalian expression vectors pcDNA3, pREP9, and pcDNA3.1. HK293 cells were transfected with the vector-UGT isozyme using the calcium phosphate transfection method. Chen, et al., Biotechniques, 6:632-638 (1988). The cells were then assayed for glucuronidation activity as described above.

UGT enzymes [1] = assay: SN-38 glucuronidation assay in human liver microsomes; format: in vitro ADME; conditions: for mean SN-38 glucuronidation rate (peak area of SN-38 glucuronide ÷ peak area CPT) {SE}: African Americans liver microsomes
Experimental: (§3) To investigate which UGT enzymes are responsible for SN-38 glucuronidation, the in vitro metabolism of SN-38 was measured using normal human and rat liver microsomes, as well as microsomes from Gunn rats, Gunn, C. H., J. Hered., 29:137-139 (1938), and patients with Crigler-Najjar type I (CN-1) syndrome. Liver microsomes were prepared from normal humans, CN-1 patients, normal rats, and Gunn rats and assayed for SN-38 glucuronidation. Microsomes from human liver samples medically unsuitable for liver transplantation were acquired under the auspices of the Washington Regional Transplant Consortium. In addition, microsomes were prepared by differential centrifugation methods. Purba, H. S., et al., Br. J. Clin. Pharmaocol. 23:447-453, using human liver samples obtained with the approval of the Institutional Review Boards of institutions involved through the Liver Tissue Procurement and Distribution System. Investigations were performed with pooled microsomes from normal rats, normal humans and Gunn rats, while microsomes from CN-1 patients were used individually.
Microsomes (1 mg/ml) were incubated with SN-38 (5 μM), MgCl2 (10 mM), and UDPGA (5 mM) in a 0.1 M Tris-HCl buffer medium (pH 7.4) for 30 minutes at 37° C., in a final volume of 200 μl. After stopping the reaction with 400 μl methanol, the incubation mix was centrifuged at 2,500 rpm for 30 minutes at 4° C. The supernatant was evaporated to dryness under nitrogen and in preparation of analysis by high pressure liquid chromatography (HPLC), the supernatant was reconstituted with 250 μl of a mobile phase consisting of 35% acetonitrile and 65% 0.1 M KH2PO4 containing 3 mM sodium heptane sulphonate (pH 4.0), used at a flow rate of 0.8 ml/min. A C18μ Bondapak column (10 μm, 3.9×300 mm) was used with fluorescence detection at the following wavelengths: 355 nm and 515 nm. 100 μl aliquots of the reconstituted supernatant were injected into an HPLC assay system. CPT was used as the internal standard. […] Retention times were approximately 3.5, 9, and 10 minutes, respectively. The peaks for each of these compounds were confirmed using standards of SN-38G, SN-38, and CPT.
Microsomes (1 mg/ml) were obtained from human liver tissue samples and were incubated with SN-38 (5 μM), MgCl2 (10 mM), and UDPGA (5 mM) in a 0.1 M Tris-HCl buffer medium (pH 7.4) for 30 minutes at 37° C., in a final volume of 200 μl. SN-38, SN-38G and the internal standard, CPT, were separated using high performance liquid chromatography (HPLC) coupled to fluorescence detection (ex=355 nm and em=515 nm). SN-38 reaction rates were linear for incubation times up to at least 1.5 hours and for final protein concentrations of up to 2 mg/ml. The results of this analysis, shown in Table 2 below, also include the liver samples of Caucasian origin from the first study. […]

human UGT2B7 = target: T2, human UGT2B7 (Homo sapiens, UniProt P16662); assay: SN-38 glucuronidation by cDNA-expressed UGT2B7 in HK293 cells; conditions: HK293 cells expressing UGT2B7; up to a protein concentration of 2 mg/ml
T2 sequence (P16662 24-529): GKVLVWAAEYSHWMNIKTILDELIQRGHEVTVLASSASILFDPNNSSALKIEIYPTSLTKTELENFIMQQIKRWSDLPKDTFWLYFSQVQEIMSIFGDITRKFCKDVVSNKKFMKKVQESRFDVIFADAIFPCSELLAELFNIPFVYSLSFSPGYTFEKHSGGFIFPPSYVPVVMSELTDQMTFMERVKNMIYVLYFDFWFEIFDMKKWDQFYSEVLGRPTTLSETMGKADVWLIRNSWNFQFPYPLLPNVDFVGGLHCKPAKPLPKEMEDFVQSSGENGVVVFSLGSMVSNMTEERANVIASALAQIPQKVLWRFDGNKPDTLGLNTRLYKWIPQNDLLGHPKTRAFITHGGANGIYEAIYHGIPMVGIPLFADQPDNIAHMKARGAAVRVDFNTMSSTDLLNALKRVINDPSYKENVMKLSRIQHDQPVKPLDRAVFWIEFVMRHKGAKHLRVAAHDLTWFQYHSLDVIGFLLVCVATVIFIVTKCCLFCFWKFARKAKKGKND
Description: as §1, §2

human UGT1A4 = target: T3, human UGT1A4 (Homo sapiens, UniProt P22310); assay: SN-38 glucuronidation by cDNA-expressed UGT1A4 in HK293 cells; conditions: HK293 cells expressing UGT1A4; up to a protein concentration of 2 mg/ml
T3 sequence (P22310 29-534): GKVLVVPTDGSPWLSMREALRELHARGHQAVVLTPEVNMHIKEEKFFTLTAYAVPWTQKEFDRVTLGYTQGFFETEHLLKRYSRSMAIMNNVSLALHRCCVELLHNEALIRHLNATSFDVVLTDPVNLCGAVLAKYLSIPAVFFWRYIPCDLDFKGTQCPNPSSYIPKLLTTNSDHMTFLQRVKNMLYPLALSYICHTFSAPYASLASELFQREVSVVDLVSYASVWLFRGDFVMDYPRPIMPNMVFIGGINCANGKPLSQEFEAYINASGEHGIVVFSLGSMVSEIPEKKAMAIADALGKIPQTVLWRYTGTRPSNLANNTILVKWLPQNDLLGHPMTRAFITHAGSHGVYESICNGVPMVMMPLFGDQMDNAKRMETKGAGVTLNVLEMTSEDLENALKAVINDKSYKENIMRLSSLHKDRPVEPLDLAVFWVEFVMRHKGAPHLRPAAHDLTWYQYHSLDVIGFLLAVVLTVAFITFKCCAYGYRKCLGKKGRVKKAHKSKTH
Description: as §1, §2

UGT enzymes [2] = assay: SN-38 glucuronidation assay in Gunn rat liver microsomes; format: in vitro ADME; conditions: liver microsomes from Gunn rats
Experimental: as §3
Microsomes (1 mg/ml) were incubated with SN-38 (5 μM), MgCl2 (10 mM), and UDPGA (5 mM) in a 0.1 M Tris-HCl buffer medium (pH 7.4) for 30 minutes at 37° C., in a final volume of 200 μl. […] A C18μ Bondapak column (10 μm, 3.9×300 mm) was used with fluorescence detection at the following wavelengths: 355 nm and 515 nm. […]

[3] = relative to Irinotecan; cited from earlier work
UGT [4] = assay: AZT glucuronidation assay in rat liver microsomes (control); format: in vitro ADME; conditions: microsomes from normal rats and Gunn rats; AZT 5 mM, 1 hour
Experimental: (§4) To ensure the viability and functional enzymatic activity of the microsomal preparations, the UGT activity toward another substrate, AZT (3′-azido-3′-deoxythymidine) was investigated as a control. Liver microsomes from normal humans, CN-1 patients, normal rats, and Gunn rats were prepared as described above. Investigations were performed in pooled microsomes from normal rats, normal humans and Gunn rats, while microsomes from CN-1 patients were used individually.
(§5) Microsomes were preincubated with oleolyl lysophosphatidylcholine (OLPC) (0.8% wt/wt. OLPC/microsomal protein) at 4° C. for 20 minutes. The final reaction mixture contained 1 mg/ml preincubated microsomes, AZT (5 mM), MgCl2 (10 mM), 0.2 M Tris-HCl buffer (pH 7.3), and UDPGA (10 mM) in a final volume of 300 μl. After an incubation period of 1 hour at 37° C., the reaction was stopped with the addition of 30 μl of HCl. Proteins were removed after centrifugation at 10,500 g for 5 minutes and 30 μl aliquots of the supernatant were subjected to HPLC analysis and the metabolites were detected in an ultraviolet detector at a wavelength of 265 nm. The mobile phase consisted of a 15:85 mixture of acetonitrile/ammonium phosphate buffer (0.1% vol/vol phosphoric acid, adjusted to pH 2.7 with ammonium hydroxide) used at a flow rate of 1 ml/min. […]

UGT [5] = assay: AZT glucuronidation assay in human liver microsomes (control); format: in vitro ADME; conditions: microsomes from normal humans and CN-1 patients; AZT 5 mM, 1 hour
Experimental: as §4, §5

UGT [6] = assay: PNP glucuronidation in human liver microsomes; format: in vitro ADME; conditions: PNP 360 μM, 10 minutes
Experimental: The formation of glucuronidated PNP was quantified by the following method. […] The reaction was stopped by the addition of 2.8 ml of 0.2 M glycine-NaOH buffer (pH 10.4). Samples were centrifuged at 2,500 rpm for 30 minutes, and UGT activity in the supernatant was analyzed colorimetrically in a spectrophotometer by measuring the disappearance of the substrate at a wavelength of 400 nm.

cytochrome P450 enzymes = assay: 7-ethoxycoumarin O-deethylation in human liver samples; format: in vitro ADME; conditions: liver samples used in the genotype study
Description: To evaluate the functional viability of microsomal drug-metabolizing enzymes in the liver samples used in this study, the livers were screened for 7-ethoxycoumarin O-deethylation, as 7-ethoxycoumarin is oxidized to umbelliferone by multiple cytochrome P450 enzymes. The method used is described by Evans & Relling, J. Chromatogr., 578:141-145 (1992).

SMILES: CCc1c2c(nc3ccc(O)cc13)-c1cc3c(c(=O)n1C2)COC(=O)[C@]3(O)CC [SN-38, 7-ethyl-10-hydroxycamptothecin]
SN-38G formation (human UGT1A1): measurable SN-38G formation
rates of SN-38G formation among individuals (range) (UGT enzymes [1]; 25 normal human liver microsomes, SN-38 5 μM, 30 minutes, 37° C.): 0.5-26 pmol of SN-38G formed/min/mg microsomal protein
mean SN-38 glucuronidation rate (peak area of SN-38 glucuronide ÷ peak area CPT) {SE} (UGT enzymes [1]; UGT1A1 promoter genotype 5/7): 0.39
mean SN-38 glucuronidation rate (peak area of SN-38 glucuronide ÷ peak area CPT) {SE} (UGT enzymes [1]; UGT1A1 promoter genotype 6/8): 0.12
in vitro SN-38 glucuronidating activity (UGT enzymes [1]; liver microsomes from CN-1 patients): no in vitro glucuronidation; also recorded: lack SN-38 glucuronidating activity
SN-38 glucuronidating activity (human UGT2B7): lack of SN-38 glucuronidating activity
SN-38 glucuronidating activity (human UGT1A4): lack of SN-38 glucuronidating activity
in vitro SN-38 glucuronidating activity (UGT enzymes [2]): no in vitro glucuronidation; also recorded: lack SN-38 glucuronidating activity
higher antitumor activity than Irinotecan [3]: 100-1,000 fold

in vitro formation of G-AZT (UGT [4]): Intact in vitro formation of G-AZT
in vitro formation of G-AZT (UGT [5]): Intact in vitro formation of G-AZT
SMILES: Cc1cn([C@H]2C[C@H](N=[N+]=[N-])[C@@H](CO)O2)c(=O)[nH]c1=O [AZT, 3′-azido-3′-deoxythymidine]

SMILES: O=[N+]([O-])c1ccc(O)cc1 [PNP]
rates of PNP glucuronidation (mean±SEM) (UGT [6]): 20.39±2.4 nmol PNP glucuronidated/min/mg protein
rates of PNP glucuronidation (range) (UGT [6]): 16.48-23.82 nmol PNP glucuronidated/min/mg protein

rates of umbelliferone formation (7-ethoxycoumarin O-deethylation) (cytochrome P450 enzymes): within the expected range
SMILES: CCOc1ccc2ccc(=O)oc2c1 [7-ethoxycoumarin]

Reference: patent US6472157B2, “Methods for detection of promoter polymorphism in a UGT gene promoter” (Arch Development Corporation, priority 1999, dated 2002)
